Results taken from paper PMC11192437, “Molecular and structural basis of oligopeptide recognition by the Ami transporter system in pneumococci” (PLOS Pathogens, 2024).

Key:
AliB = settings: S2 Table; previously reported to bind AliB; ref 10 (table adapted from Nasher et al; 2018); cited from earlier work
Text: Supplement ppat.1011883.s002.docx, table 1 | column: OBP

AliD [1] = experiment: Microscale thermophoresis (MST) peptide binding to AliD; design: species or system Streptococcus pneumoniae; settings: 20 nM RED-NHS-labeled AliD, peptide 7.63x10^-6–0.125 mM in PBS, 25°C
Method: To investigate the conformational changes occurring in the Ami permease OBPs upon ligand binding, we synthesized specific peptides (Tables 1 and S2) previously reported to be substrates of these proteins. […] To verify specific binding of peptides to OBPs, binding of peptide 1 (FPPQSV), which is the natural substrate of AliD, and peptide 2 (AIQSEKARKHN) was measured to AliD by microscale thermophoresis (MST) (see methods). […] The crystal structure of the AliD:peptide 1 complex was obtained by co-crystallization (see Materials and Methods) at 2.18 Å resolution (Fig 3A).
Binding of peptides to heterologously expressed AliD was measured by microscale thermophoresis (MST). […] Analyzed peptides (1: FPPQSV and 2: AIQSEKARKHN) were diluted in PBS. […] Samples were loaded into standard capillaries (NanoTemper Technologies) and measured using the Monolith NT.115 machine (NanoTemper Technologies). […] Data of three independently conducted experiments were analyzed using the Mo.Affinity Analysis software version 2.3 from NanoTemper Technologies.
Supplementary file ppat.1011883.s017.tif: S6 Fig Peptide 1 structure in the AliD:peptide 1 complex. (A) Binding of peptide 1 and 2 to heterologously expressed AliD as analyzed by microscale thermophoresis (MST). […] Samples were measured using the Monolith NT.115 (NanoTemper Technologies) at 40% LED power and medium MST power at 25° C. […]

AliD [2] = settings: peptide derived from Prevotella species; cited from earlier work
AliD [3] = settings: peptide derived from Prevotella species; cited from earlier work; remark: listed apart in the source
[4] = target: AliD (residues 28–652), oligopeptide-binding lipoprotein of the Ami system, without the lipobox segment (Streptococcus pneumoniae); experiment: MST; 20 nM RED-NHS-labelled AliD and unlabelled peptides (7.63x10^-6–0.125 mM) both in solution, PBS, 25°C, 40% LED power, medium MST power, Monolith NT.115; three independent experiments
[5] = target: AliC (residues 24–655), oligopeptide-binding lipoprotein of the Ami system, without the lipobox segment (Streptococcus pneumoniae); experiment: AUC; sedimentation velocity, 20 mM Tris–HCl pH 7.5, 20°C, 4.1 μM protein, c(s) distribution (SEDFIT)
[6] = target: AliC (residues 24–655), oligopeptide-binding lipoprotein of the Ami system, without the lipobox segment (Streptococcus pneumoniae); experiment: crystal structure; AliC in the open conformation, no peptide; 0.1 M Bis-Tris pH 6.5, 25% PEG3350; 2.38 Å; domain-swapped dimer

**Q.** For “PIVGGHEGAGV [Peptide 3, …; NDMA-dependent alcohol dehydrogenase (multispecies)]”, which “Corresponding OBP” value (AliB) is on record?
**A.** Its value is “AliB”.

**Q.** Which results are given for “FPPQSV [Peptide 1, FPPQSV; Ribosome-associated GTPase EngA (Prevotella species)]”?
**A.** Binding to AliD (in words) (AliD [1]): concentration dependent binding; Gene expression change when bound by AliD (AliD [2]): significant changes in gene expression; Colonization when bound by AliD (AliD [3]): enhanced colonization

**Q.** With “VMVKGPGPGREST [Peptide 4, …; 30S ribosomal protein S11 (multispecies)]” as the molecule, how does the “Corresponding OBP” value (AliB) read?
**A.** Its value is “AliB”.

**Q.** With Peptide 1 (FPPQSV) as the molecule, how does the Kd [4] read?
**A.** Its Kd is 3.44 µM.

**Q.** For “AliC (residues 24–655), oligopeptide-binding lipoprotein of the Ami system, without the lipobox segment (natural protein)”, which stoichiometry N [5] is on record?
**A.** Its stoichiometry N is 2.

**Q.** And the stoichiometry N [6]?
**A.** Its stoichiometry N is 2.

**Q.** For AIQSEKARKHN [Peptide 2 (…)], which Kd [4] is on record?
**A.** Its Kd is 14.4 µM.
